In test [1] the test system is C. elegans. As to the kind of experiment: Single worm attraction assay (SWAA). Format: in vivo. The method, then: We adapted the spot retention assay (Supplementary Fig. 1)[28],[38] to allow for better characterization of individual worm behavior and robust interrogation of attraction to small molecules. We first compared the attractiveness of 1 µM ascr#8 (Fig. 1a, inset) across multiple strains of C. elegans (the wild-type N2 strain, the high incidence of male him-5 and him-8 strains, and the chemosensory cilia defective osm-3), using our novel behavioral assay, the single worm attraction assay (SWAA) (Fig. 1a). In this assay, individual animals are placed directly into the spot of the ascaroside cue (A) while simultaneously removing any potential of male–male contact. A spatial control is included throughout the assay plate to allow us to investigate any innate differences in the number of visits to the well center, or the time spent therein, of which we have only found one strain to date with differences in male dwell time (Fig. 1a). Likewise, a vehicle control (V) is also included, to account of any changes in dwell time that are driven by the components of the vehicle. The outer forty wells of a 48-well suspension culture plate (Olympus Plastics, Cat #: 25-103) were seeded with 200 µL of standard NGM agar. To prepare the plates for the assay, they were acclimated to room temperature, at which point each well was seeded with 65 µL of OP50 E. coli. […] A single worm was placed in each of the 10 wells to be assayed, and the plate was transferred to a light source and camera and recorded for 15 m. […] Raw dwell time values were calculated by subtracting the time a worm exited the cue (center of the well in spatial controls), from the time it entered, as in the SRA[14]. This was determined per visit, and the average dwell time was calculated for each animal in the quadrant. Averages of the four-quadrant means were determined per plate, and a minimum of five plates were assayed per strain/condition. The mean raw dwell time across five plates was calculated and used for statistical analyses and graphical display. […] The number of visits per-worm was calculated, and the average visit count determined per quadrant, and per plate. The average visit count across five plates was calculated and used for statistical analyses and graphical display. An “attractive visit” was first determined for each plate as any visit greater than two standard deviations above the mean dwell time within the vehicle control for that plate. Any individual visit meeting this threshold was scored as a “1”, and any below was scored a “0”. The percent visits per-worm that were attractive was determined, and the average of each quadrant taken. […] The average percent of attractive visits across five plates was calculated and used for statistical analyses and graphical display. […]

Test [2] concerns C. elegans. As to the kind of experiment: Drop avoidance assay. Particulars: Fig. 2c. Format: in vivo. The method, then:
Because the defect in male response to ascr#8 was significant, and the SWAA was designed to detect attractive behaviors, we sought to determine if flp-3 loss-of-function (lof) animals were in fact avoiding ascr#8. Using a previously described drop avoidance assay[11],[41], we exposed forward moving animals to a drop of either vehicle control or ascr#8 and scored the avoidance index. […] The hermaphroditic behavior was unaffected by the loss of flp-3. (Fig. 2f). […] Assays were performed as described previously[4],[11],[41]. Fifty to sixty L4 worms were segregated by sex and stored at 20 °C for 5 h to overnight to be assayed as young adults. One to four hours prior to the assay, the lids of unseeded plates were tilted to allow any excess moisture to evaporate off the plates. At the time of the assay, 10 or more animals were transferred onto each of the dried, unseeded plates. A drop of either water or 1 µM ascr#8 was placed on the tail of forward moving animals, and their response was scored as either an avoidance response, or no response. The total number of avoidances was divided by the total number of drops to generate an avoidance index for that plate. This was repeated for at least 10 plates over at least three different days. Statistical comparisons within each strain were made by paired t-test against a significance level set at 0.05. […]

Test [3] has as its system C. elegans. Particulars: males no longer attracted to higher concentrations; cited from earlier work. From the text:
Here, we investigate the neuronal mechanisms governing the behavioral attractive response of male C. elegans to ascr#8[28].

Test [4] has as its target T1, NPR-10B (Caenorhabditis elegans, UniProt Q6EUU1).
T1 sequence (Q6EUU1 1-362): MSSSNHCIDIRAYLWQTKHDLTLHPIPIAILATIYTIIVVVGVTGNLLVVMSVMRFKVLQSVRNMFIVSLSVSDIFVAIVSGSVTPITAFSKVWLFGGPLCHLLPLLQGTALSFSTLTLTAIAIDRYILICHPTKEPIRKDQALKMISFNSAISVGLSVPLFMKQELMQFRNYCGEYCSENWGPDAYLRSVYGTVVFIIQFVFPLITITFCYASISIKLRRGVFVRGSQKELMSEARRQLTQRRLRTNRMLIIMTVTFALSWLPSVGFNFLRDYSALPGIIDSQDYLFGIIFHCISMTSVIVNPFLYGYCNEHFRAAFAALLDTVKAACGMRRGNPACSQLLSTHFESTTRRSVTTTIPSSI
As to the kind of experiment: In vitro GPCR activation assay (CHO-K1, aequorin, Gα16), NPR-10B. Format: cell-based, C. elegans. The following applies: CHO-K1 aequorin/Gα16 calcium response. The method, then: (§1) The GPCR activation assay was performed as previously described[66],[74]. Briefly, npr-10 and frpr-16 cDNAs were cloned into the pcDNA3.1 TOPO expression vector (Thermo Fisher Scientific). A CHO-K1 cell line (PerkinElmer, ES-000-A24) stably expressing apo-aequorin targeted to the mitochondria (mtAEQ) and human Gα16 was transiently transfected with the receptor cDNA construct or the empty pcDNA3.1 vector using Lipofectamine LTX and Plus reagent (Thermo Fisher Scientific). Cells were shifted to 28 °C one day later and allowed to incubate for 24 h. On the day of the assay, cells were collected in BSA medium (DMEM/Ham’s F12 with 15 mM HEPES, without phenol red, 0.1% BSA) and loaded with […] coelenterazine h (Thermo Fisher Scientific) for 4 h at room temperature. The incubated cells were then added to synthetic peptides dissolved in DMEM/BSA, and luminescence was measured for 30 s at 496 nm using a Mithras LB940 (Berthold Technologies) or MicroBeta LumiJet luminometer (PerkinElmer). After 30 s of readout, 0.1% triton X-100 was added to lyse the cells, resulting in a maximal calcium response that was measured for 10 s. After initial screening, concentration-response curves were constructed for HPLC-purified FLP-3 peptides by subjecting the transfected cells to each peptide in a concentration range from 1 pM to 10 µM. Cells transfected with an empty vector were used as a negative control. Assays were performed in triplicate on at least two independent days. Concentration-response curves were fitted using Prism v. 7 (nonlinear regression analysis with a sigmoidal concentration-response equation).

Test [5] concerns NPR-10A. As to the kind of experiment: In vitro GPCR activation assay (CHO-K1, aequorin, Gα16), NPR-10A. The format is cell-based, C. elegans. The following applies: CHO-K1 aequorin/Gα16 calcium response; Supplementary Fig. 10a. As to the method:
This peptide contains an R-to-K mutation within the C-terminal motif, which may explain the lack of receptor activation.
as §1, with “After initial screening, concentration-response curves were constructed for HPLC-purified FLP-3 peptides by subjecting the transfected cells to each peptide in a concentration range from 1 pM to 10 µM. Cells transfected with an empty vector were used as a negative control. Assays were performed in triplicate on at least two independent days. Concentration-response curves were fitted using Prism v. 7 (nonlinear regression analysis with a sigmoidal concentration-response equation).” left out

Test [6] deals with T2, FRPR-16 (Caenorhabditis elegans, UniProt Q21957).
T2 sequence (Q21957 1-340): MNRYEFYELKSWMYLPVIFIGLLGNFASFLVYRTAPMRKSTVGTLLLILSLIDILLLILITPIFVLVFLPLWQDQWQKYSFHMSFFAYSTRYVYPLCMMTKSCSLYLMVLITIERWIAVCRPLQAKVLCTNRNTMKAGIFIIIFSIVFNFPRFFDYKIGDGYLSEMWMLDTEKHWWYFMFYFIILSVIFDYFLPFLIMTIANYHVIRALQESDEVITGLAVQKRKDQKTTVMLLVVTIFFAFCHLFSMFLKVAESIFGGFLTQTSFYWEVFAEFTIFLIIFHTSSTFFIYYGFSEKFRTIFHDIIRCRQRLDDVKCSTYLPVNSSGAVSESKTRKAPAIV
As to the kind of experiment: In vitro GPCR activation assay (CHO-K1, aequorin, Gα16), FRPR-16. Particulars: CHO-K1 aequorin/Gα16 calcium response. Format: cell-based, C. elegans. The method, then: as §1

Test [7] relates to flp-3 lof C. elegans males. As to the kind of experiment: Peptide rescue-by-feeding, avoidance assay. Format: in vivo. The following applies: flp-3 lof males reared on bacteria expressing the peptide; 1 µM ascr#8 drop. The source says:
To identify which FLP-3 peptides are required for male avoidance of ascr#8, we adopted a peptide feeding approach, similar to RNAi feeding, as initially described previously[37],[59] (Fig. 6a). Using Gateway Cloning technology, we first inserted FLP-3 peptide coding sequences into a bacterial expression vector. As a control, we first tested the FLP-3 peptides that are still encoded in the ok3625 allele which are insufficient to drive the proper ascr#8 response in vivo: FLP-3-1 (SPLGTMRFamide) and FLP-3-4 (NPLGTMRFamide) (Supplementary Fig. 4). We then reared flp-3 lof animals on lawns of bacteria expressing the rescue constructs, and their progeny were assayed for avoidance (Fig. 6b–d, Supplementary Fig. 12).
DNA oligos containing the sequence for the peptides of interest were generated using Integrated DNA Technologies’ Ultramer synthesis service. The DNA sequence encoding the peptide sequence was flanked with sequences encoding EGL-3 cut sites (MRFGKR upstream, and KRK-STOP) downstream. These sites were then flanked with Gateway Cloning sites attB1 and attB2. Annealed oligos were then used to perform a BP reaction with pDONR p1-p2 to generate the pENTRY clones. […]
Assays were performed as described previously[4],[11],[41]. […] A drop of either water or 1 µM ascr#8 was placed on the tail of forward moving animals, and their response was scored as either an avoidance response, or no response. […]

“Also recorded” adds a separate entry of the source.

`C[C@H](CC/C=C/C(=O)Nc1ccc(C(=O)O)cc1)O[C@@H]1O[C@@H](C)[C@H](O)C[C@H]1O` [ascr#8]: in test [1] (1 µM ascr#8, males of wild-type strains, Supplementary Fig. 2b), the “Attractive visits to the cue” value is 30–45%. Moreover, the “Time spent in ascr#8 compared to the vehicle, in words” value in test [1] (hermaphrodites from all strains) is recorded as “significantly less time”. For the same compound, the “Time spent within ascr#8 spot compared to the vehicle control, in words” value in test [1] (males, all wild-type and him strains, Fig. 1b, c) is listed as “significant increase”. The “Avoidance of the cue, in words” value in test [2] (flp-3 lof males) is reported as “strongly avoided”; in test [2] (wild-type males) it was “did not avoid”. Moreover, the “Concentration preferred by males (behavioral tuning curve)” value in test [3] is recorded as about 1 µM.
As for “STVDSSEPVIRDQ [FLP-3-10, non-RFamide peptide encoded by the flp-3 gene]”, the “Activation of NPR-10 (NPR-10B), in words” value in test [4] was “activated no receptors; also recorded: failed to activate; also recorded: did not activate either receptor”. In addition, in test [5], the “Activation of NPR-10A, in words” value was “activated no receptors”. Moreover, the “Activation of FRPR-16, in words” value in test [6] is on record as “activated no receptors; also recorded: did not activate either receptor”. Besides, the “Rescue of the ascr#8 avoidance phenotype, in words” value in test [7] is on record as “unable to rescue the avoidance phenotype”.

(Values after publication PMC8408276, “Distinct neuropeptide-receptor modules regulate a sex-specific behavioral response to a pheromone” (Communications Biology, 2021).)
